# Assay results as given in patent US11873298B2, “Compounds and uses thereof” (JANSSEN PHARMACEUTICA NV, priority 2017, dated 2024).
# Legend:
# [1] = tested on: yeast strains expressing the human ApoE4; experiment: Yeast ApoE4 toxicity rescue assay (OD600 growth); conditions: 24 h; for Emax: read-out: ApoE4 Emax; for EC50: read-out: ApoE4 EC50
# [2] = tested on: yeast strains expressing the human α-synuclein; experiment: Yeast α-synuclein toxicity rescue assay (OD600 growth); conditions: 40 h; for EC50: read-out: α-Syn EC50; for Emax: read-out: α-Syn Emax
# Text: The induced expression of α-synuclein and ApoE4 confers cytotoxicity, thus enabling the identification of compounds that can restore cell viability. This instantaneous/synchronous induction of α-synuclein and ApoE4 can be achieved due to the following expression control. In glucose-containing media, gene expression from the GAL1 promoter is ‘off’ and actively repressed by additional epigenetic factors. In raffinose, expression is ‘off’, but the promoter not actively repressed. Upon transition to galactose-containing media, the promoter is instantaneously turned ‘on’ to achieve robust and synchronous induction of α-synuclein or ApoE4 expression. This highly regulated induction provides a robust window for the determination of both efficacy (amplitude of protective effect) and potency (concentration of protective effect) of cytoprotective compounds.
# Re-suspended compound stocks were subsequently arrayed into 384 well compound plates using automated pipetting. All other wells not receiving stock compound were filled with 10 μL of 100% DMSO using an automated plate filler (Multidrop Combi). An 11 point, 2-fold serial dilution was then performed using the robotic platform. Compound assay plates were covered with foil and stored at −20° C. until use.
# Each strain was handled according to standard protocols and cultured in media composed of CSM (complete synthetic media), YNB (yeast nitrogenous base), and a 2% (w/v) carbon source (either glucose, raffinose, or galactose).
# In a standard yeast assay, a single-use aliquot of cells was thawed on ice and diluted into CSM/glucose (5 mL). Cultures were grown for 8 hours at 30° C. This pre-growth enables the yeast to exit the thaw and begin to grow without expressing aSyn or ApoE4. After 8 hours, cell density (OD600) was determined and cultures diluted to an OD600 of 0.01 in CSM/raffinose for an overnight culture phase at 30° C. During this period, the active glucose repression of the GAL1 promoter was relieved; however, expression of the α-Syn/ApoE4 genes were not yet induced. After ˜16 hours of growth, cultures attain an OD600 of 0.4-0.8 and were ready to apply to assay plates containing compound.
# Compound profiling assays were executed in clear-bottom 384 well plates. First, compound plates were thawed at room temperature for 45′, centrifuged at 1,000×g for 1 minute, and the foil removed. Clear 384 well assay plates were then filled with 15 μL of CSM/galactose. […] The pin tool was washed iteratively with both 50% DMSO and 100% ethanol between each assay plate. After delivering compound to each assay plate, the overnight CSM/raffinose aSyn or ApoE4 cultures were added at a 2X cell density (0.04 for aSyn and 0.08 for ApoE4) in CSM/galactose to achieve a final assay OD600 of 0.02 and 0.04 for aSyn and ApoE, respectively. The cultures (15 μL per well) were then dispensed to the compound -containing 384 well assay plates using an automated plate filler. Plates were incubated in a humidified 30° C. incubator for 40 or 24 hours for aSyn and ApoE4, respectively. The ODsoo of each assay plate was then read with a microplate reader (e.g., Perkin Elmer Envision).
# The efficacy and potency of compounds were calculated according to the following. Raw data (OD600 values) were first background corrected to account for OD600 contributed by the plate and media itself. The efficacy (percent above DMSO, herein referred to as “Emax”) was calculated according to the equation: (Experimental well−DMSO control well)/(DMSO control well)*100. […] Normalized dose-response data was fit with a logistic regression curve using Spotfire (TIBCO), or similar curve-fitting software package. EC50 values were then reported along with EMax to provide both efficacy and potency measures for each analog and enable further compound design.
# SCD5 = target: T1, SCD5 (Homo sapiens, UniProt Q86SK9); experiment: Growth inhibition of humanized yeast strain expressing SCD5 as sole desaturase; type: cell-based; conditions: humanized yeast strain expressing SCD5
# T1 construct: host or cells: S. cerevisiae ole1Δ strain (W303 pdr1Δ pdr3Δ background), plasmid pRS316 with TDH3 promoter and CYC1 terminator
# T1 sequence (Q86SK9 1-330): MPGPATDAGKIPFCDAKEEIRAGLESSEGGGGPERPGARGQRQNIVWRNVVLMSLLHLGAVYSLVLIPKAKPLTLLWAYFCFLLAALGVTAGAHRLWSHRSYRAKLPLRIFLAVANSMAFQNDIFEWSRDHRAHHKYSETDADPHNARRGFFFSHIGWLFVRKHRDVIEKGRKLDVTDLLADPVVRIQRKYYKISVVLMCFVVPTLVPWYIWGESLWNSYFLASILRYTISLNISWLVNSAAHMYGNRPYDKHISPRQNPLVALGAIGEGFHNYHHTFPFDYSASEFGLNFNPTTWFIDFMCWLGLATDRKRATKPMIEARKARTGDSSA
# Outline: (§1)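 Yeast ole1Δ strain (W303 pdr1Δ pdr3Δ background) carrying plasmid-borne Ole1, SCD1 or SCD5 as sole desaturase was grown in uracil-lacking media, pre-cultured in raffinose for 6 h, then seeded in galactose medium with compound in DMSO. Growth was read as OD600 after 30° C. incubation: 24 h for Ole1, 40 h for SCD1/SCD5.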
# SCD1 = target: T2, SCD1 (Homo sapiens, UniProt O00767); experiment: Growth inhibition of humanized yeast strain expressing SCD1 as sole desaturase; type: cell-based; conditions: humanized yeast strain expressing SCD1
# T2 construct: host or cells: S. cerevisiae ole1Δ strain (W303 pdr1Δ pdr3Δ background), plasmid pRS316 with TDH3 promoter and CYC1 terminator
# T2 sequence (O00767 1-359): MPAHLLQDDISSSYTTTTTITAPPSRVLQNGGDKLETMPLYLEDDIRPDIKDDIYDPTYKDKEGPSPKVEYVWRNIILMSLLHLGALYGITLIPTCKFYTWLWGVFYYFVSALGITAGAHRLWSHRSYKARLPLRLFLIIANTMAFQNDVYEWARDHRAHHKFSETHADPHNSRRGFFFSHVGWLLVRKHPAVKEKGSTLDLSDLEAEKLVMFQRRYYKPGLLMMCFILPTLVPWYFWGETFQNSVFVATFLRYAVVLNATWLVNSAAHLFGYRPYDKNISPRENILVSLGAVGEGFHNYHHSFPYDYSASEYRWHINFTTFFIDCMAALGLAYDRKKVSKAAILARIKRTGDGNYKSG
# Outline: as §1
# Ole1 = target: T3, Ole1 (Saccharomyces cerevisiae, UniProt P21147); experiment: Growth inhibition of yeast strain expressing Ole1 as sole desaturase; type: cell-based; conditions: yeast strain expressing Ole1 as sole desaturase
# T3 construct: expressed in transfected cells; host or cells: S. cerevisiae ole1Δ strain (W303 pdr1Δ pdr3Δ background), plasmid pRS316 with TDH3 promoter and CYC1 terminator
# T3 sequence (P21147 1-510): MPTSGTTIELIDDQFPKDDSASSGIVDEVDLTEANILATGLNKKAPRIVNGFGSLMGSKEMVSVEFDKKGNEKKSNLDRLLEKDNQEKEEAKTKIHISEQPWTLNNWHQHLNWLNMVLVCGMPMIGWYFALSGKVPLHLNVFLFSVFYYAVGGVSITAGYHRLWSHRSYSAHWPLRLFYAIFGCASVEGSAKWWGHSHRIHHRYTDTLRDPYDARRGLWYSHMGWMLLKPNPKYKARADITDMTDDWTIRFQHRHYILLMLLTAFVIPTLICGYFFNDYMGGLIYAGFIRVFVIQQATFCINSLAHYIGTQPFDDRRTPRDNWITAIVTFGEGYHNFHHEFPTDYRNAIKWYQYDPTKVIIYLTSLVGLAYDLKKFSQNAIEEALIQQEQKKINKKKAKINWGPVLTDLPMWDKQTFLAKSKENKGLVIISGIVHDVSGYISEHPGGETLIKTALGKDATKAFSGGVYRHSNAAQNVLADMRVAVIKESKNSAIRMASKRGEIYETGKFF
# Outline: as §1
Compound,Emax [1],EC50 [2],Emax [2],IC50 (SCD5),SCD5 % Max Inhibition (SCD5),IC50 (SCD1),SCD1 % Max Inhibition (SCD1),IC50 (Ole1),OLE1 % Max Inhibition (Ole1),EC50 [1]
"COc1ccc(-c2noc(C3CCN(C(=O)[C@H](C)NC(=O)c4ccccc4)CC3)n2)cc1OC (single isomer, unassigned) [Compound 59]",47%,15.7 µM,82%,> 45 µM,59.32%,> 45 µM,79.13%,> 45 µM,105.25%,
"COc1ccc(-c2noc(C3CCN(C(=O)[C@@H](C)NC(=O)c4ccccc4)CC3)n2)cc1OC (single isomer, unassigned) [Compound 60]",795%,0.032 µM,605%,41.1 µM,57.19%,> 45 µM,72.03%,> 45 µM,2.91%,0.119 µM
"Cc1ccc(-c2noc(C3CCN(C(=O)[C@H]4CC(=O)N(c5ccc(C)c(C)c5)C4)CC3)n2)cc1 (single isomer, unassigned) [Compound 61]",465%,19.7 µM,229%,> 45 µM,13.18%,> 45 µM,2.37%,40.9 µM,71.50%,19.4 µM
"COc1ccc(-c2noc(C3CCN(C(=O)[C@@H]4CC(=O)N(c5ccc(C)c(C)c5)C4)CC3)n2)cc1 (single isomer, unassigned) [Compound 63]",250%,17.2 µM,68%,> 45 µM,9.39%,33.7 µM,62.04%,> 45 µM,101.06%,13.4 µM
"COc1ccc(-c2noc(C3CCN(C(=O)[C@H]4CC(=O)N(c5ccc(C)c(C)c5)C4)CC3)n2)cc1OC (single isomer, unassigned) [compound 67]",420%,7.38 µM,255%,> 45 µM,,40.7 µM,,> 45 µM,,17.4 µM
"COc1cccc(-c2noc(C3CCN(C(=O)[C@@H]4CC(=O)N(c5ccc(C)c(C)c5)C4)CC3)n2)c1 (single isomer, unassigned) [compound 69]",387%,,294%,> 45 µM,,> 45 µM,,> 45 µM,,
"Cc1ccc(-c2nc(C3CCN(C(=O)[C@H]4CC(=O)N(c5ccc(C)c(C)c5)C4)CC3)no2)cc1 (single isomer, unassigned) [compound 71]",235%,8.09 µM,151%,> 45 µM,,> 45 µM,,> 45 µM,,8.97 µM
"Cc1cccc(-c2nc(C3CCN(C(=O)[C@H]4CC(=O)N(c5ccc(C)c(C)c5)C4)CC3)no2)c1 (single isomer, unassigned) [compound 73]",303%,15.8 µM,151%,> 45 µM,,33.7 µM,,> 45 µM,,
"Cc1cccc(-c2nc(C3CCN(C(=O)[C@@H]4CC(=O)N(c5ccc(C)c(C)c5)C4)CC3)no2)c1 (single isomer, unassigned) [compound 74]",411%,17.9 µM,155%,> 45 µM,,31.3 µM,,> 45 µM,,
COc1ccc(-c2noc(C3CCN(C(=O)CNC(=O)c4ccccc4)CC3)n2)cc1OC [Compound 7],782%,0.04 µM,594%,> 45 µM,,39.2 µM,,> 45 µM,,0.176 µM
COc1ccc(-c2noc(C3CCN(C(=O)C(C)NC(=O)c4ccccc4)CC3)n2)cc1OC (stereo not drawn) [Compound 28],836%,0.066 µM,576%,> 45 µM,79.98%,> 45 µM,98.15%,> 45 µM,4.80%,1.59 µM
COc1ccc(-c2noc(C3CCN(C(=O)Cc4cncc(C)n4)CC3)n2)cc1OC [Compound 45],19%,26 µM,121%,,,,,,,29.3 µM
COc1ccc(-c2noc(C3CCN(C(=O)C4CC(=O)N(c5ccccc5)C4)CC3)n2)cc1OC (stereo not drawn) [compound 18],826%,0.266 µM,452%,> 45 µM,,,,> 45 µM,,1.51 µM
COc1ccc(-c2noc(C3CCN(C(=O)CN(C)C(=O)c4ccccc4)CC3)n2)cc1OC [compound 22],372%,8.42 µM,334%,30 µM,,,,40.5 µM,,
COc1ccc(-c2noc(C3CCN(C(=O)[C@H]4CC(=O)N(c5ccccc5)C4)CC3)n2)cc1OC [compound 65],779%,0.036 µM,643%,,,,,> 45 µM,,0.987 µM
COc1ccc(-c2noc(C3CCN(C(=O)[C@@H]4CC(=O)N(c5ccccc5)C4)CC3)n2)cc1OC [compound 66],790%,11.1 µM,350%,,,,,> 45 µM,,21.2 µM
COc1ccc(-c2noc(C3CCN(C(=O)[C@@H]4CC(=O)N(c5ccc(C)c(C)c5)C4)CC3)n2)cc1OC [compound 68],775%,1.86 µM,652%,,,,,> 45 µM,,3.12 µM
CC1(C)CC(=O)c2c(O)cc(OCC(=O)N3CCC(c4nc(-c5ccccc5)no4)CC3)cc2O1 [compound 76],162%,9.92 µM,76%,,,,,,,14.8 µM
COc1ccc(-c2noc(C3CCN(C(=O)COc4cc(O)c5c(c4)OC(C)(C)CC5=O)CC3)n2)cc1OC [compound 77],436%,,345%,,,,,,,
O=C(NC1CC1c1ccccc1)N1CCC(c2nc(-c3ccc4ccccc4n3)no2)CC1 (stereo not drawn) [compound 82],40%,,,,,,,,,16.8 µM
CCOc1ccc(-c2noc(C3CCN(C(=O)C4CC(=O)N(c5ccccc5)C4)CC3)n2)cc1OC (stereo not drawn) [compound 84],866%,0.06 µM,463%,,,,,,,0.956 µM
CCOc1ccc(-c2noc(C3CCN(C(=O)c4cc(-c5ccccc5)no4)CC3)n2)cc1OC [compound 92],,2.5 µM,187%,> 45 µM,,> 45 µM,,> 45 µM,,
Cc1n[nH]c2cc(-c3noc(C4CCN(C(=O)CNC(=O)c5ccccc5)CC4)n3)ccc12 [compound 93],,1.8 µM,626%,> 45 µM,,> 45 µM,,> 45 µM,,
Cn1ncc2ccc(-c3noc(C4CCN(C(=O)CNC(=O)c5ccccc5)CC4)n3)cc21 [compound 94],,0.04 µM,,39.3 µM,,> 45 µM,,> 45 µM,,
CCOc1ccc(-c2noc(C3CCN(C(=O)CNC(=O)c4ccccc4)CC3)n2)cc1C#N [compound 101],,1.18 µM,122%,> 45 µM,,> 45 µM,,> 45 µM,,
Cc1nn(C)c2cc(-c3noc(N4CCN(C(=O)CNC(=O)c5ccccc5)CC4)n3)ccc12 [compound 102],,0.284 µM,411%,> 45 µM,,> 45 µM,,> 45 µM,,
